{
  "source": "patent US10597730B2",
  "about": "“Method of diagnosing cancer” (The Hospital for Sick Children, priority 2012, dated 2020)",
  "format_in_all_cases": "cell-based, human",
  "key": {"[1]": {"system": "glioma G179 tumour-initiating cells", "test": "Telomerase inhibition, cell population doubling analysis, G179 TIC line", "settings": "Imetelstat 5 μM twice a week", "source_text": "Samples were obtained with patients' consent according to the Research Ethics Boards at The Hospital for Sick Children and Toronto Western Hospital. Fetal Neural Stem (NS) HF240 cells, human Mesenchymal Progenitor cells, human umbilical cord perivascular cells, and human skin-derived precursors hSKPs were previously described (Castelo-Branco et al. Clin Cancer Res. 2011 Jan. 1; 17(1):111-21). Glioma tumour-initiating cell (TIC) lines G179 and GLINS1 were derived from patients diagnosed with classic glioblastoma multiforme and maintained as previously described (Castelo-Branco et al., 2011). All cell lines and patient samples are described in Table 1.\nHF240 normal neural stem cell line and the G179 TIC line were treated twice a week with 5 μM Imetelstat telomerase inhibitor. Cell population doubling analysis after treatment was then determined."}, "[2]": {"system": "hypermethylated neuroblastoma cell lines", "test": "Telomerase inhibitor treatment of hypermethylated neuroblastoma cell lines", "settings": "two neuroblastoma cell lines hypermethylated in region 2 of the TERT promoter, 5 μM for 5 weeks"}, "[3]": {"system": "neuroblastoma cell line (CHLA90)", "test": "Telomerase inhibitor treatment of unmethylated neuroblastoma cell line CHLA90", "settings": "CHLA90, unmethylated within region 2 of the TERT promoter, evidence of ALT; 5 μM for 5 weeks"}},
  "note": "Entries after “also recorded” stand apart in the source; their conditions may differ.",
  "data": [
    {"substance": "Imetelstat", "values": [
      {"measurement": "growth / replicative potential (cell population doubling)", "setting": "[1]", "result": "inhibit growth; also recorded: loss of replicative potential"},
      {"measurement": "response to treatment (growth and viability)", "setting": "[2]", "result": "responded"},
      {"measurement": "response to treatment (growth and viability)", "setting": "[2]; listed as imetelstat", "result": "inhibitory effect on growth and viability"},
      {"measurement": "response to treatment (growth and viability)", "setting": "[3]", "result": "did not"}
    ]}
  ]
}
